Earlier results as cited in patent US20240130371A1, “ENVIRONMENTAL PROTECTION SYSTEMS AND METHODS OF GREENHOUSE GAS CAPTURE VIA CALCIUM HYDROXIDE” (priority 2021, published 2024).

Details: common coronavirus killers

SMILES: CC(C)O [isopropyl alcohol]
- pH: around 8
